One series has as its target T1, hNav1.5 (Homo sapiens, UniProt Q14524).
T1 construct: host or cells: HEK293T
Briefly: State-dependent blocking/unblocking kinetics of Nav1.5 (use-dependent block protocol, inactivation time constants). It is filed as cell-based. Here is the method: Manual whole-cell patch-clamp experiments were performed at room temperature, with equipment as described in previous studies. Pipettes were pulled from Clark borosilicate glass capillaries with inner filament (GC150F-10, Harvard Apparatus, Holliston, MA, USA) and had typical resistances of 2–3 MΩ. Recordings were performed with a WPC-100 resistive feedback amplifier (ESF electronic, Göttingen, Germany) or an Axopatch 200B amplifier (Axon Instruments—Molecular Devices, San Jose, CA, USA) connected to a Digidata 1322A interface driven by the pClamp 8.2 Clampex module (Axon Instruments, part of Molecular Devices, San Jose, CA, USA). For different types of ion channel, we applied specific voltage-clamp protocols as follows: • - For hERG, a standard two-step activation protocol was used: holding at −70 mV, a 100 ms step at −50 mV used as current reference for measurements, a 2 s depolarizing step at +40 mV, followed by a 2 s step at −50 mV to elicit the peak hERG current by rapid recovery from inactivation, repeated sweeps at 10 s intervals, plus specific protocols to assess the voltage dependence of activation and inactivation, as described in Thomet et al., 2021 [11]. • - For hKv7.1 + minK, a general two-step activation protocol was used: holding at −110 mV, a 250 ms step at −80 mV with a brief (50 ms) step at −90 mV at the middle to monitor seal quality, a 3000 ms depolarizing step at +60 mV, followed by a 1000 ms step at −50 mV; repeated sweeps at 20 s intervals. • - For hCav1.2, a pharmacology protocol with holding at −80 mV, a first 100 ms step at −50 mV and a second 200 ms step at 0 mV, repeated sweeps at 20 s intervals with drug application after 5 sweeps if current levels were steady, plus an activation–inactivation protocol with holding at −80 mV, 1000 ms depolarizing steps from −80 to +50 mV in 10 mV increments, followed by 250 ms steps at +10 mV and a return to −80 mV; 14 sweeps at 20 s intervals. • - For hNav1.5, multiple voltage protocols were used, including the following: • - A standard pharmacology protocol with holding at −90 mV, a 20 ms step at −110 mV for seal monitoring, a 40 ms activation step at −10 mV, and repeated sweeps at 1 s intervals.
To estimate state-specific blocking and unblocking kinetics, we applied, initially and during exposure to cenobamate, a special voltage protocol devised for use-dependent block, with repeated brief depolarizing pulses at −10 mV separated by variable intervals at a hyperpolarized potential (−120 mV), with durations between 5 and 50 ms, as described in Section 2. Recordings using this protocol in initial conditions and with cenobamate application are illustrated in Figure S3 of the Supplementary Materials. By noting with td = 10 ms and tr = 5–50 ms the times spent at a depolarized potential and at a resting hyperpolarized potential during each pulse, with on the fraction of available (non-inactivated or blocked) channels that produce the peak Na^+ current during each depolarizing pulse of the sequence, and with τi and τr, the apparent macroscopic time constants of inactivation and recovery from inactivation in control conditions (in the absence of a blocker), we obtained using several approximations a general recurrence formula that allows computation for each experiment of the recovery time constant, knowing the inactivation time constant (obtained by the monoexponential fit of the inactivation part of the recording during the depolarization pulse) and the decay in peak INa amplitude during pulse n relative to the peak amplitude during the preceding pulse (1 − on)/on−1 (detailed explanations in Section S1 of the Supplementary Materials): τr=tr/ln1−e^−td/τi−ln1−on/on−1

The conditions of series [1]: ref https://go.drugbank.com/drugs/DB06119; cited from earlier work.
Series [2] concerns voltage-gated sodium channels in rat hippocampal CA3 neurons. The conditions noted are these: cited from earlier work; for IC50: newborn rat CA3 hippocampal neurons, ref [22].

Several values for one entry are separate records, joined by “and”; a condition that tells them apart may be missing. Equal entries are not always repeated. Where two headings read alike, the source gives them in different places.

T1 sequence (Q14524 whole entry): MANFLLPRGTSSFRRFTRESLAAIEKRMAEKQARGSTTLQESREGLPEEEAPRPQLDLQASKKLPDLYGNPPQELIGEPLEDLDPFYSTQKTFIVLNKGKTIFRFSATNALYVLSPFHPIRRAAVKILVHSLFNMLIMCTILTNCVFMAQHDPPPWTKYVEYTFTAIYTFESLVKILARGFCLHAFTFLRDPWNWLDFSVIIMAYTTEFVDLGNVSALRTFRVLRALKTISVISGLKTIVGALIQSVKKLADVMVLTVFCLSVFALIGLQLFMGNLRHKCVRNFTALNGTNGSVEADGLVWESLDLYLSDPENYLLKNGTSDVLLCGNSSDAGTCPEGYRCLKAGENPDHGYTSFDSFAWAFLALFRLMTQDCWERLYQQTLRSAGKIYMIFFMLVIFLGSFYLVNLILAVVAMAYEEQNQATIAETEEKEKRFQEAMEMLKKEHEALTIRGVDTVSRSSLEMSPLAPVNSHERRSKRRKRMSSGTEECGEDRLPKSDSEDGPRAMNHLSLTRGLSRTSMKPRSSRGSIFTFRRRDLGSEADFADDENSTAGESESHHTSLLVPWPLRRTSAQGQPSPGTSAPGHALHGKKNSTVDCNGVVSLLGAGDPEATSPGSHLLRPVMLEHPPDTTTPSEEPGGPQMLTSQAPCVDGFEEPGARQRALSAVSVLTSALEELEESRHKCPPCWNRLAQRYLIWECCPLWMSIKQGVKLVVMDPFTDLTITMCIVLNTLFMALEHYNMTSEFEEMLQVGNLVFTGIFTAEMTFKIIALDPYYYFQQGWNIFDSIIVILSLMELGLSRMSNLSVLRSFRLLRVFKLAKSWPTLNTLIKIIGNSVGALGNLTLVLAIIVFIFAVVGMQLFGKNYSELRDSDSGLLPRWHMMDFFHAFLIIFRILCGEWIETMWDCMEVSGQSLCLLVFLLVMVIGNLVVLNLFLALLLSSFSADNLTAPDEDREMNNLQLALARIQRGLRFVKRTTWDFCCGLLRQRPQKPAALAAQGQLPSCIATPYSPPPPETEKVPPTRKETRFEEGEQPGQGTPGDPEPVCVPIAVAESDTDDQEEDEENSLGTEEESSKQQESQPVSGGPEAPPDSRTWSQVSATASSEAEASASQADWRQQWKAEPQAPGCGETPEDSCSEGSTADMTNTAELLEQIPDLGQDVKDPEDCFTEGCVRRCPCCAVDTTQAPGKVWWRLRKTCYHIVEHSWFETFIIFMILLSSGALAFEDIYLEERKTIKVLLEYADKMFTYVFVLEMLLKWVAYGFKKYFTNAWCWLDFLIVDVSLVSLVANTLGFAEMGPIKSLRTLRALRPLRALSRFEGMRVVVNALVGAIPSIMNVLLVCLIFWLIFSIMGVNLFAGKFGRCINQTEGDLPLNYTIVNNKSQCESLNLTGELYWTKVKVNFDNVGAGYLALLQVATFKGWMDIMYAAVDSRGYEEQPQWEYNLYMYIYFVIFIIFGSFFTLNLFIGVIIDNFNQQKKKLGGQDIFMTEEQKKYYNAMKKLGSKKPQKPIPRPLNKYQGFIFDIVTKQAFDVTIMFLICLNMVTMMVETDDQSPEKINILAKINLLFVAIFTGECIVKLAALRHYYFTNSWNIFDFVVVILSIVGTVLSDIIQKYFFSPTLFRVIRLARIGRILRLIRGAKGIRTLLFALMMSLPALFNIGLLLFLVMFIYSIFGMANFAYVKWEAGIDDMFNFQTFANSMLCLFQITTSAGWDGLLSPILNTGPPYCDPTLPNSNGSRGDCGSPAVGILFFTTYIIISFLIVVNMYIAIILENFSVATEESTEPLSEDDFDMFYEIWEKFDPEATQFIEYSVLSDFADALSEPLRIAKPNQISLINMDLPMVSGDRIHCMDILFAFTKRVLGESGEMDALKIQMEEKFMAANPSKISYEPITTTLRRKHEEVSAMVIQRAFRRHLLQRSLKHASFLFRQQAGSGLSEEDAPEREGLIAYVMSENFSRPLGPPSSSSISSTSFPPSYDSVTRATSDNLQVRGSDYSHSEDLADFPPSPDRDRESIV

One may read the logP as a log measure of how a compound divides between an organic and an aqueous phase. Broadly, the IC50 is the concentration at which inhibition is half-maximal. Turning to `NC(=O)O[C@@H](Cn1ncnn1)c1ccccc1Cl` [cenobamate], at hNav1.5, the “kib (blocking rate, inactivated conformation)” value worked out at 669800 M⁻¹ s⁻¹; the “kib (model script)” value amounted to 669800 M⁻¹ s⁻¹; the “kib^−1 (unblocking rate, inactivated conformation)” value is 0.1825 ms^−1; the “kob (blocking rate, open conformation)” value is 2.15e+06 M⁻¹ s⁻¹. Also, at hNav1.5, the “kob (model script)” value turned out to be 2.15e+06 M⁻¹ s⁻¹ and the “kob^−1 (unblocking rate, open conformation)” value came to 0.189 ms^−1. Moreover, on hNav1.5 (Kd (I)), the Kd is 273 µM. Besides, the Kd at hNav1.5 (Kd (O), open conformation, assumed equivalent to IC50 on peak INa) turned out to be 87.8 µM. Further, the “1/τib (kib × [D] + kib^−1)” value on hNav1.5 ([D] 98.44 µM) was determined as 0.2484 ms^−1. Moreover, the “est. τib” value at hNav1.5 (blocking/unblocking time constant of inactivated conformation, cenobamate estimated 98.44 µM, per experiment and mean ± SD) is 4.08 ms and 3.83 ms and 4.94 ms and 3.25 ms. Further, the “Rate (1/τ) with cenobamate” value on hNav1.5 (cenobamate 200 µM, initial 0.94) was 1.56 ms^−1. Further, the “τi+ob” value on hNav1.5 (use-dependent block protocol during cenobamate (estimated 98.44 µM), per experiment and mean ± SD) was 2.23 ms and 3.04 ms and 2.94 ms and 1.73 ms. For the same compound, in series [1], the logP is 1.66, the physiological charge is 0, the “strongest acidic pKa” value is listed as 14.28 and the “strongest basic pKa” value was −1.7. Further, the “change in half-inactivation potential” value in series [2] (100 µM cenobamate, ref [22] Nakamura et al., 2019) was −6 mV. Moreover, the IC50 in series [2] (read-out: IC50 on late (persistent) INa) was 53.1 µM. Also, the IC50 in series [2] (read-out: estimated IC50 on peak (transient) Na+ current) is greater than 500 µM. Also, the Kd in series [2] (ref [22] Nakamura et al., 2019, read-out: KR (affinity for resting (closed) conformation)) is 798 µM.

(Values after PMC11674187, “Inhibitory Effects of Cenobamate on Multiple Human Cardiac Ion Channels and Possible Arrhythmogenic Consequences” (Biomolecules, 2024).)
